Among the data in PMC10057887, “Analysis of Essential Isoprene Metabolic Pathway Proteins in Variovorax sp. Strain WS11” (Applied and Environmental Microbiology, 2023) are Km values, retold here.

For assay [1], the system named is AD45-AldH. In words: NADH formation at […] nm, substrate inhibition model at high concentrations. The format is biochemical, Rhodococcus sp. AD45. Conditions: NAD+ 5 mM, 50 mM sodium carbonate pH 10.0, racemic substrate.
For assay [2], the system named is T1, WS11-AldH.
T1 construct: isoprene cluster copy, on megaplasmid
The assay is described as above. The assay is classed as biochemical, Variovorax sp. WS11. Conditions: NAD+ 5 mM, 50 mM sodium carbonate pH 10.0, racemic substrate.

Assay [3] concerns T1, WS11-AldH. The assay is described as follows: NADH formation at […] nm, Michaelis-Menten fit. The format is biochemical, Variovorax sp. WS11. Conditions: NAD+ 5 mM, 50 mM sodium carbonate pH 10.0.
Assay [4] relates to AD45-AldH. In words: NADH formation at […] nm, Michaelis-Menten fit. The format is biochemical, Rhodococcus sp. AD45. Conditions: NAD+ 5 mM, 50 mM sodium carbonate pH 10.0.

For `CCC(C)C=O` (racemic) [2-methylbutanal], the Km in the assay with AD45-AldH [1] was found to be 30 µM; with WS11-AldH [2], 120 µM.
Regarding `CCCC=O` [butanal], the Km with WS11-AldH [3] is 690 µM; in the assay with AD45-AldH [4] it was 80 µM.
Turning to `CCC=O` [propanal], the Km in the assay on WS11-AldH [3] (predicted Km, not saturated at 10 mM) was approximately 10900 µM; in the assay with AD45-AldH [4], 570 µM.

A word on the Km: it is the substrate concentration at which the rate is half of its maximum.
